“And” between values parts separate entries of the source, which are not always exact repeats. Equal entries are not always repeated. Where two headings read alike, the source gives them in different places.
System: metastatic castration-resistant prostate cancer (mCRPC) with DNA-repair anomalies
Conditions: for CTC Response (CTC = 0 at week 8), % of subjects / CTC Response (CTC = 0 at week 8), number of subjects: ITT with baseline CTC >0 (N=131)
Method: The planned sample size was approximately 120 subjects with measurable disease who were biomarker-positive (approximately 75 subjects with DNA repair anomalies in BRCA [BRCA1 or BRCA2] and approximately 45 subjects with biallelic DNA-repair anomalies in non-BRCA [ATM, FANCA, PALB2, CHEK2, BRIP1, or HDAC2]).
Efficacy objectives were evaluated for subjects meeting the biomarker selection criteria described in the protocol. All subjects were monitored for safety during the study period, and up to 30 days after the last dose of study drug. Treatment continued until disease progression, unacceptable toxicity, death, or termination of the study by the sponsor.
Diagnosis and Main Criteria for Inclusion: The target population consisted of male subjects over the age of 18 years with mCRPC and DNA-repair anomalies (biallelic mutations and germline pathogenic mutations only for BRCA1 or BRCA2 mutations) who had received at least 1 prior taxane-based chemotherapy and at least 1 prior AR targeted therapy (second-generation or later). Subjects were asked to provide a tumor tissue sample (archival or recently collected, if available), and a blood sample for analysis of DNA-repair anomalies using a sponsor-validated assay.
Criteria for Evaluation: Efficacy assessments included chest, abdomen, and pelvis CT or MRI scans and whole-body bone scans (^99mTc) to evaluate objective response and disease progression.
The primary endpoint was ORR and summarized for the BRCA analysis set along with the 95% 2-sided exact CI. In addition, the counts and percentage of subjects in each response category (CR. PR, etc.) were tabulated. ORR in non-BRCA subjects was analyzed in the same way.
Descriptive summaries of CTC response were generated for BRCA and non-BRCA analysis sets, measurable and non-measurable subgroups and tabulated with its 2-sided 95% exact CI. Waterfall plots of percent change in CTC were also presented, showing the percentage change in CTC counts from baseline to 8 weeks, as well as maximal CTC count declines. All time to event secondary endpoints were evaluated using Kaplan-Meier method for BRCA and non-BRCA analysis sets. Median time to event and the corresponding 95% CI were provided. Descriptive summaries were provided for BRCA and non-BRCA analysis sets.
Time to degradation was determined using the following meaningful change threshold values: FACT-P Total (10-point reduction from baseline), EQ-5D-5L Index (0.09-point reduction from baseline). EQ-5D-5L VAS (10-point reduction from baseline), and BPI SF worst pain intensity item (30% reduction from baseline).
The primary endpoint was ORR, defined as the proportion of subjects with BRCA DNA-repair anomalies and measurable disease whose best response was either CR or PR as defined by RECIST 1.1 (Eisenhauer et al 2009) and who had no evidence of bone progression according to the PCWG3 criteria (Scher et al 2016).
ORR final analysis was performed approximately 6 months from Cycle 1 Day 1 of the last subject with a BRCA DNA-repair anomaly and measurable disease. Objective response as determined by investigator assessment was considered as the primary analysis.
Subjects who discontinued the study without a response assessment were considered as non-responders in the analysis. The objective response rate was calculated and its 2-sided 95% exact CI presented. In addition, the counts and percentage of subjects in each response category (CR, PR, etc.) were tabulated.
The following analyses of CTC response were performed for BRCA and non-BRCA analysis sets, measurable and non-measurable subgroups: • Descriptive summaries • CTC response rate was tabulated with its 2-sided 95% exact CI
All time to event secondary endpoints were evaluated using Kaplan-Meier method for BRCA and non-BRCA analysis sets. Median time to event and the corresponding 95% CI were provided. Descriptive summaries were provided for BRCA and non-BRCA analysis sets.

[1] = BRCA, ITT (N=142), Kaplan-Meier, 300 mg once daily
[2] = BRCA, 300 mg once daily, listed as niraparib
[3] = BRCA, measurable ITT (N=76), 300 mg once daily
[4] = BRCA, measurable ITT responders (N=26), 300 mg once daily
[5] = BRCA, measurable ITT responders (N=26), Kaplan-Meier, 300 mg once daily
[6] = BRCA, patients with baseline CTC ≥5 (n=117), 300 mg once daily
[7] = NON-BRCA, ITT (N=81), 300 mg once daily
[8] = NON-BRCA, measurable ITT responders (N=5), 300 mg once daily
[9] = NON-BRCA, measurable ITT responders (N=5), Kaplan-Meier, 300 mg once daily
[10] = Non-BRCA (n = 81), 300 mg once daily
[11] = Non-BRCA, patients with baseline CTC ≥5 (n=60), 300 mg once daily

Structure (SMILES): NC(=O)c1cccc2cn(-c3ccc([C@@H]4CCCNC4)cc3)nc12 [Niraparib, 2-[4-[(3S)-piperidin-3-yl]phenyl]-2H-indazole-7-carboxamide]
- Time to PSA progression: time to event, Median [1]: 5.13 months
- Time to radiographic progression: time to event, 25th percentile [1]: 4.76 months
- Time to radiographic progression: time to event, 75th percentile [1]: 11.63 months
- Time to symptomatic skeletal event (SSE): time to event, Median [1]: 13.80 months
- Time to symptomatic skeletal event: time to event, 25th percentile [1]: 7.52 months
- rPFS: time to event, 25th percentile [1]: 4.44 months
- rPFS: time to event, 75th percentile [1]: 11.56 months
- CTC Response (CTC = 0 at week 8), % of subjects (BRCA, 300 mg once daily): (23.7%)
- CTC Response (CTC = 0 at week 8), number of subjects (BRCA, 300 mg once daily): 31
- CTC Response (CTC = 0 at week 8), % of subjects [2]: (23.7) %
- CTC Response (CTC = 0 at week 8), number of subjects [2]: 31/131
- DOR, median (range) (BRCA, as printed in Table 13, 300 mg once daily): 6.28 mo
- Best Overall Response: Complete Response (CR), % of subjects [3]: 2.6%
- Best Overall Response: Complete Response (CR), number of subjects [3]: 2
- Best Overall Response: Not Available (NA), % of subjects [3]: 9.2%
- Best Overall Response: Not Available (NA), number of subjects [3]: 7
- Best Overall Response: Partial Response (PR), % of subjects [3]: 31.6%
- Best Overall Response: Partial Response (PR), number of subjects [3]: 24
- Best Overall Response: Progressive Disease (PD), % of subjects [3]: 21.1%
- Best Overall Response: Progressive Disease (PD), number of subjects [3]: 16
- Best Overall Response: Stable Disease (SD), % of subjects [3]: 35.5%
- Best Overall Response: Stable Disease (SD), number of subjects [3]: 27
- ORR (objective response rate, RECIST 1.1, no bone progression per PCWG3), % of subjects [3]: 34.2%
- ORR (objective response rate, RECIST 1.1, no bone progression per PCWG3), number of subjects [3]: 26
- Objective response confirmed: Complete Response (CR), % of subjects [3]: 2.6%
- Objective response confirmed: Complete Response (CR), number of subjects [3]: 2
- Objective response confirmed: Partial Response (PR), % of subjects [3]: 31.6%
- Objective response confirmed: Partial Response (PR), number of subjects [3]: 24
- Duration of objective response: 6-month event-free rate [4]: 0.464
- Duration of objective response: 12-month event-free rate [4]: 0.000
- Duration of objective response: 18-month event-free rate [4]: 0.000
- Duration of objective response: 24-month event-free rate [4]: 0.000
- Duration of objective response: Censored, % of subjects [4]: (23.1%)
- Duration of objective response: Censored, number of subjects [4]: 6
- Duration of objective response: Event, % of subjects [4]: (76.9%)
- Duration of objective response: Event, number of subjects [4]: 20
- Duration of objective response: time to event, 25th percentile [5]: 3.75 months
- Duration of objective response: time to event, 75th percentile [5]: 7.20 months
- Duration of objective response: time to event, Median [5]: 5.55 months
- CTC conversion (CTC count ≥5/7.5 mL blood at baseline to <5/7.5 mL blood at nadir), % of subjects [6]: 47.0%
- CTC conversion (CTC count ≥5/7.5 mL blood at baseline to <5/7.5 mL blood at nadir), number of subjects [6]: 55
- Time to PSA progression: 12-month event-free rate [7]: 0.000
- Time to PSA progression: 18-month event-free rate [7]: 0.000
- Duration of objective response: 6-month event-free rate [8]: 0.500
- Duration of objective response: 18-month event-free rate [8]: 0.000
- Duration of objective response: 24-month event-free rate [8]: 0.000
- Duration of objective response: Censored, % of subjects [8]: (20.0%)
- Duration of objective response: Censored, number of subjects [8]: 1
- Duration of objective response: Event, % of subjects [8]: (80.0%)
- Duration of objective response: Event, number of subjects [8]: 4
- Duration of objective response: time to event, 25th percentile [9]: 2.96 months
- Duration of objective response: time to event, 75th percentile [9]: 6.95 months
- Duration of objective response: time to event, Median [9]: 5.16 months
- CRR (composite response rate), % of subjects [10]: 14.8%
- CRR (composite response rate), number of subjects [10]: 12
- PSA50 (≥50% decline in prostate-specific antigen), % of subjects [10]: 4.9%
- PSA50 (≥50% decline in prostate-specific antigen), number of subjects [10]: 4
- CTC conversion (CTC count ≥5/7.5 mL blood at baseline to <5/7.5 mL blood at nadir), % of subjects [11]: 15.0%
- CTC conversion (CTC count ≥5/7.5 mL blood at baseline to <5/7.5 mL blood at nadir), number of subjects [11]: 9
- Best Overall Response: Complete Response (CR), number of subjects (in vivo): 0
- Best Overall Response: Not Available (NA), % of subjects (in vivo): (17.0%)
- Best Overall Response: Not Available (NA), number of subjects (in vivo): 8
- Best Overall Response: Partial Response (PR), % of subjects (in vivo): (10.6%)
- Best Overall Response: Partial Response (PR), number of subjects (in vivo): 5
- Best Overall Response: Progressive Disease (PD), % of subjects (in vivo): (31.9%)
- Best Overall Response: Progressive Disease (PD), number of subjects (in vivo): 15
- Best Overall Response: Stable Disease (SD), % of subjects (in vivo): (40.4%)
- Best Overall Response: Stable Disease (SD), number of subjects (in vivo): 19
- Duration of objective response: 12-month event-free rate (in vivo): 0.000
- Objective response confirmed: Complete Response (CR), number of subjects (in vivo): 0
- Objective response confirmed: Partial Response (PR), % of subjects (in vivo): 5 (10.6%)
- Objective response confirmed: Partial Response (PR), number of subjects (in vivo): 5 (10.6%)
- Overall survival: 6-month event-free rate (in vivo): 0.841 and 0.709 and 0.793
- Overall survival: 12-month event-free rate (in vivo): 0.564 and 0.413 and 0.508
- Overall survival: 18-month event-free rate (in vivo): 0.334 and 0.198 and 0.278
- Overall survival: 24-month event-free rate (in vivo): 0.152 and 0.111 and 0.136
- Overall survival: time to event, 25th percentile (in vivo): 8.31 months and 4.86 months and 7.16 months
- Overall survival: time to event, 75th percentile (in vivo): 19.52 months and 16.53 months and 19.42 months
- Time to PSA progression: 6-month event-free rate (in vivo): 0.144
- Time to PSA progression: 24-month event-free rate (in vivo): 0.000
- Time to PSA progression: Censored, % of subjects (in vivo): (51.9%)
- Time to PSA progression: Censored, number of subjects (in vivo): 57 and 42
- Time to PSA progression: Event, % of subjects (in vivo): (48.1%)
- Time to PSA progression: time to event, 25th percentile (in vivo): 2.79 months
- Time to PSA progression: time to event, 75th percentile (in vivo): 4.63 months and 8.31 months
- Time to PSA progression: time to event, Median (in vivo): 3.65 months
- Time to radiographic progression: 6-month event-free rate (in vivo): 0.299
- Time to radiographic progression: Censored, % of subjects (in vivo): (34.6%)
- Time to radiographic progression: Censored, number of subjects (in vivo): 28
- Time to radiographic progression: Event, number of subjects (in vivo): 53
- Time to radiographic progression: time to event, 25th percentile (in vivo): 1.87 months
- Time to radiographic progression: time to event, 75th percentile (in vivo): 8.11 months
- Time to symptomatic skeletal event (SSE): time to event, Median (in vivo): 10.35 months
- Time to symptomatic skeletal event: 6-month event-free rate (in vivo): 0.792
- Time to symptomatic skeletal event: 12-month event-free rate (in vivo): 0.379
- Time to symptomatic skeletal event: 18-month event-free rate (in vivo): 0.190
- Time to symptomatic skeletal event: Censored, % of subjects (in vivo): (76.5%)
- Time to symptomatic skeletal event: Censored, number of subjects (in vivo): 62
- Time to symptomatic skeletal event: time to event, 25th percentile (in vivo): 6.51 months
- Time to symptomatic skeletal event: time to event, 75th percentile (in vivo): 15.54 months
- rPFS: 6-month event-free rate (in vivo): 0.289
- rPFS: Censored, % of subjects (in vivo): (29.6%)
- rPFS: Censored, number of subjects (in vivo): 24
- rPFS: Event, % of subjects (in vivo): (70.4%)
- rPFS: Event, number of subjects (in vivo): 57
- rPFS: time to event, 25th percentile (in vivo): 1.87 months
- rPFS: time to event, 75th percentile (in vivo): 6.47 months

Source: patent publication US20240325369A1 (priority 2021, published 2024)
